Measured values from US20190055212A1, “HISTONE DEMETHYLASE INHIBITORS” (priority 2016, published 2019).

Target: KDM5B enzyme (Homo sapiens, UniProt Q9UGL1)
Assay: KDM5B HTRF (TR-FRET) demethylase inhibition assay
Format: biochemical
Details: 1.2 nM KDM5B, 30 nM Biotin-H3K4Me3 1-21 substrate, 10 point dose-response
Protocol: Ten point dose-response curves for compounds shown in Table 1 were determined using a homogeneous time resolved fluorescence (HTRF) assay (Reaction Biology Corp, Malvern, Pa.). This assay combines fluorescence resonance energy transfer (FRET) with time resolve (TR) measurements (TR-FRET). The KDM5B α-ketoglutarate-dependent demethylase activity is calculated by measuring demethylation of a biotin labeled histone tri-methylated H3K4 substrate using an europium-cryptate (Eu)-labeled antibody donor specific for dimethylated histone H3K4 and a Streptavidin-XL665 acceptor that binds to the biotin group of substrate, and detecting FRET by exciting the reaction mixture at 320 nm and reading dual emissions at 615 nm and 665 nm.
Briefly, compounds disclosed herein were solubilized in DMSO and a series of 10, three-fold serial dilutions were made for each compound in 100% DMSO. The initial starting concentration for the serial dilutions of each compound was 10 μM or 100 μM. Control samples lacking compound, KDM5B enzyme or various reaction components also were prepared and processed in parallel with compound test samples.
An aliquot of each serial dilution of test compound was added to a 384 well plate (Corning Cat #3572) containing 1.2 nM KDM5B enzyme suspended in 50 mM Hepes, pH7.5, 50 mM NaCl, 0.01% Tween 20, 0.1% BSA, and 1% DMSO (final concentrations) in a 10 microliter reaction volume using a LABCYTE ECHO liquid handler. The samples were mixed, subjected to centrifugation and the plate was pre-incubated at room temperature for 15 min, to which 30 nM Biotin-H3K4Me3 1-21 substrate (Anaspec Cat #64192), 20 μM […] and 20 μM α-ketoglutarate co-factors, and 100 μM Ascorbate were added to initiate the enzymatic reaction. The reaction mixture was incubated at room temperature for 45 minutes. A 10 μl aliquot of a detection mixture of Eu-labeled anti-histone H3K4Me2 antibody (CisBIO Cat #610AXLB) and Streptavidin-XL665 (CisBIO Cat #610 SAXLB) in 200 mM potassium fluoride and 10 mM EDTA was added and kinetic measurements were read at 5 minute intervals for a period of 30 minutes using an Envision Multiplate Reader (PerkinElmer Model 2102; excitation at 320 nm and emmission reads at 615 nm and 665 nm). The IC50 value for each compound was determined from the 665/615 ratio obtained for each 10 point dose-response curve using GraphPad Prism 4 software with a sigmodial dose response. Key: “A”≤100 nM; “B”>100 nM-≤500 nM; “C”>500 nM and N/D is not determined.

Chain of KDM5B enzyme (Q9UGL1 whole entry): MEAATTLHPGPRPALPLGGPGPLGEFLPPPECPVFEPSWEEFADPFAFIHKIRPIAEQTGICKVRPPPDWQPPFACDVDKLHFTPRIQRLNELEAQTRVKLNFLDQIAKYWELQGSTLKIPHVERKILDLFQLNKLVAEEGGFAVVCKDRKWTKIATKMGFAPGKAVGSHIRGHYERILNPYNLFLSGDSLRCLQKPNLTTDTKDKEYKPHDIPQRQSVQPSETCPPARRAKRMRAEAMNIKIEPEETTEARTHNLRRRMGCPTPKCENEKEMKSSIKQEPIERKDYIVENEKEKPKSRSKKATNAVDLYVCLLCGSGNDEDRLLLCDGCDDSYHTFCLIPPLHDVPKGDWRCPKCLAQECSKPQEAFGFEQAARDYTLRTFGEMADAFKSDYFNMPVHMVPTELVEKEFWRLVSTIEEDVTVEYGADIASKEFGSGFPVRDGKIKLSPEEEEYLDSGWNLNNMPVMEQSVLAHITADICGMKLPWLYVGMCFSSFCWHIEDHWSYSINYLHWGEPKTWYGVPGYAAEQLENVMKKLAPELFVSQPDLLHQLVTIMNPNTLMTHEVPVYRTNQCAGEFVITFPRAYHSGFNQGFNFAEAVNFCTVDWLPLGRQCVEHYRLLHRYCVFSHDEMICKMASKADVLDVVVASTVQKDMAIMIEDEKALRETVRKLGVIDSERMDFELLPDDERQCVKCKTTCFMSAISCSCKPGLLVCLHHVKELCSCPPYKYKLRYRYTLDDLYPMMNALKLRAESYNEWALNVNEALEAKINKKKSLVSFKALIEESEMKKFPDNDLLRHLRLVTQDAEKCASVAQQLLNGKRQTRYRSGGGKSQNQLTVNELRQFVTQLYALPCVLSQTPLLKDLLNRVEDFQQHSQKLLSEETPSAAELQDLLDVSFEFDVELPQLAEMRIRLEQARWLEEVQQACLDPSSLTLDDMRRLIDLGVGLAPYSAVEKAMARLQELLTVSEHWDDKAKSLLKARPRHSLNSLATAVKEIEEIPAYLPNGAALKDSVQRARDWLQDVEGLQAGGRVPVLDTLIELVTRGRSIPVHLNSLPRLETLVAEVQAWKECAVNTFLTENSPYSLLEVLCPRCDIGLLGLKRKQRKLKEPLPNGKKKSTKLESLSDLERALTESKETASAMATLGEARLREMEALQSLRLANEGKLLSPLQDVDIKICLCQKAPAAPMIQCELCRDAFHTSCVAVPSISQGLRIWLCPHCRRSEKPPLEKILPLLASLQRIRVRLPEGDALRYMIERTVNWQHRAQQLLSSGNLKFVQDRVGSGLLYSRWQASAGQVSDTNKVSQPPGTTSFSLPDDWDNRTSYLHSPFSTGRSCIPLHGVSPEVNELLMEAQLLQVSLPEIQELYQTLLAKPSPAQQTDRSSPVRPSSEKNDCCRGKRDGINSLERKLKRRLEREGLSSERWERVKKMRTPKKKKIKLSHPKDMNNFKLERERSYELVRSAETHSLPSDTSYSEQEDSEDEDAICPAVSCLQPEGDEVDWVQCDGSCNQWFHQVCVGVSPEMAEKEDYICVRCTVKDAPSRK

| Structure (SMILES) | IC50 [nM] |
| --- | --- |
| O=C(O)c1ccnc(-c2nc3ccccc3n2Cc2ccc(Cl)cc2)c1 [Example 1] | 100 to 500 |
| COc1ccc(Cn2c(-c3cc(C(=O)O)ccn3)nc3ccccc32)cc1 [Example 2] | ≤ 100 |
| COc1ccc(CCn2c(-c3cc(C(=O)O)ccn3)nc3ccccc32)cc1 [Example 3] | 100 to 500 |
| COc1ccc(-n2c(-c3cc(C(=O)O)ccn3)nc3ccccc32)cc1 [Example 4] | ≤ 100 |
| COc1cc(C)ccc1CCn1ccnc1-c1cc(C(=O)O)ccn1 [Example 5] | > 500 |
| COc1cc(Cl)ccc1CCn1ccnc1-c1cc(C(=O)O)ccn1 [Example 6] | 100 to 500 |
| Cc1cc(Cl)ccc1CCn1ccnc1-c1cc(C(=O)O)ccn1 [Example 7] | 100 to 500 |
| O=C(O)c1ccnc(-c2nccn2CCc2ccc(Cl)cc2)c1 [Example 8] | > 500 |
| N#Cc1ccccc1Cn1ccnc1-c1cc(C(=O)O)ccn1 [Example 9] | 100 to 500 |
| O=C(O)c1ccnc(-c2nccn2Cc2ccc(Cl)cc2)c1 [Example 10] | 100 to 500 |
| CCN1CCN(c2ccc(Cn3ccnc3-c3cc(C(=O)O)ccn3)c3c2CCCC3)CC1 [Example 11] | > 500 |
| Cn1c(-c2ccccn2)cnc1-c1cc(C(=O)O)ccn1 [Example 12] | ≤ 100 |
| Cn1cc(-c2ccccn2)nc1-c1cc(C(=O)O)ccn1 [Example 13] | > 500 |
| O=C(O)c1ccnc(-c2ncc(CO)n2CCc2ccc(Cl)cc2)c1 [Example 14] | 100 to 500 |
| CNC(=O)c1cnc(-c2cc(C(=O)O)ccn2)n1CCc1ccc(Cl)cc1 [Example 15] | ≤ 100 |
| Cc1ccc(-n2ccnc2-c2cc(C(=O)O)ccn2)cc1 [Example 16] | 100 to 500 |
| CN(Cc1ccc(F)cc1)Cc1ccc2nc(-c3cc(C(=O)O)ccn3)n(CCc3ccc(F)cc3)c2c1 [Example 28] | 100 to 500 |
| O=C(O)c1ccnc(-c2nc3ccccc3n2CC2CCOc3ccccc32)c1 (stereo not drawn) [Example 29] | ≤ 100 |
| O=C(O)c1ccnc(-c2ncc(-c3ccccn3)n2CCc2ccc(Cl)cc2)c1 [Example 31] | 100 to 500 |
| O=C(O)c1ccnc(-c2ncc(-c3ccccn3)n2Cc2ccc(Oc3ccccc3)cc2)c1 [Example 34] | 100 to 500 |

| Structure (SMILES) | IC50 [nM] |
| --- | --- |
| COc1ccc(N(C)c2ccc(Cn3ccnc3-c3cc(C(=O)O)ccn3)cc2)cc1 [Example 36] | > 500 |
| CCc1ccc(N(C)c2ccc3c(c2)OCCC3Cn2ccnc2-c2cc(C(=O)O)ccn2)cc1 (stereo not drawn) [Example 42] | 100 to 500 |
| CN(CCc1cnc(-c2cc(C(=O)O)ccn2)n1CCc1ccc(F)cc1)Cc1ccc(Cl)cc1 [Example 47] | ≤ 100 |
| O=C(O)c1ccnc(-c2ncc(CCN3CCC(c4cc(Cl)cc(Cl)c4)CC3)n2CCc2ccc(F)cc2)c1 [Example 51] | ≤ 100 |
| COc1cc(CN2CCC(NCCc3ccccc3)CC2)ccc1Cn1ccnc1-c1cc(C(=O)O)ccn1 [Example 54] | 100 to 500 |
| CN(Cc1ccccn1)Cc1cnc(-c2cc(C(=O)O)ccn2)n1CCc1ccc(F)cc1 [Example 62] | 100 to 500 |
| CN(Cc1ccc(N2CCOCC2)cc1)Cc1cnc(-c2cc(C(=O)O)ccn2)n1CCc1ccc(F)cc1 [Example 66] | 100 to 500 |
| CN(Cc1cnc(-c2cc(C(=O)O)ccn2)n1CCc1ccc(F)cc1)C1CCN(Cc2ccccc2)CC1 [Example 68] | ≤ 100 |
| O=C(O)c1ccnc(-c2ncc(CN(CCO)Cc3ccccc3)n2CCc2ccc(F)cc2)c1 [Example 70] | 100 to 500 |
| CN1CCN(Cc2cnc(-c3cc(C(=O)O)ccn3)n2CCc2ccc(F)cc2)C(c2ccccc2)C1 (stereo not drawn) [Example 72] | ≤ 100 |
| O=C(O)c1ccnc(-c2ncc(CN3CCC(OC4CCCCC4)CC3)n2CCc2ccc(F)cc2)c1 [Example 74] | ≤ 100 |
| O=C(O)c1ccnc(-c2ncc(CN3CCN(CCCOc4ccccc4)CC3)n2CCc2ccc(F)cc2)c1 [Example 76] | ≤ 100 |
| O=C(O)c1ccnc(-c2ncc(CN3CCN(Cc4ccc(C(F)(F)F)cc4)CC3)n2CCc2ccc(F)cc2)c1 [Example 78] | ≤ 100 |
| O=C(O)c1ccnc(-c2ncc(CN3CCCN(c4ccccc4)CC3)n2CCc2ccc(F)cc2)c1 [Example 82] | ≤ 100 |
| O=C(O)c1ccnc(-c2ncc(CN3CCc4c([nH]c5ccccc45)C3)n2CCc2ccc(F)cc2)c1 [Example 86] | ≤ 100 |
| CCc1ccc(N(C)c2ccc3c(c2)OCCC3Cn2c(-c3cc(C(=O)O)ccn3)nc3ccccc32)cc1 (stereo not drawn) [Example 88] | > 500 |
| COc1ccc(N(C)c2ccc3c(c2)OCCC3Cn2c(-c3cc(C(=O)O)ccn3)nc3ccccc32)cc1 (stereo not drawn) [Example 90] | > 500 |
| CN1CCN(Cc2cnc(-c3cc(C(=O)O)ccn3)n2C)C(c2ccccc2)C1 (stereo not drawn) [Example 101] | ≤ 100 |
| Cn1c(CN2CCN(Cc3ccc(C(F)(F)F)cc3)CC2)cnc1-c1cc(C(=O)O)ccn1 [Example 107] | ≤ 100 |
